Source: US4701205A, “Chemical tobacco sucker control” (Chevron Research Company, priority 1986, dated 1987)
Like-named read-outs stand apart in the source and are kept apart here.

Key:
[1] = test system: tobacco suckers (axillary buds), Var. 12 × L8; assay: whole plant or invertebrate; assay type: in vivo, Nicotiana tabacum; conditions: for inhibition at 200 µg/mL / inhibition at 400 µg/mL / inhibition at 800 µg/mL: Nicotiana tabacum, read-out: Percent Bud Inhibition Top Two Nodes; for Mean # of Nodes with Secondary Suckers / Mean Sucker Length (cm): Table 3, six weeks after treatment
Method: (§1) Twenty-four hours before treatment, the tobacco plants are "topped", removing the top 15 cm of the plant. Any plants which are tending to lean or bend in the pot were staked, and all pots labeled. Three to five replicates were used per treatment. A 5% wt. stock solution of each test compound dissolved in acetone containing a small amount of non-ionic emulsifier was prepared. The stock solution was appropriately diluted with deionized water containing 0.625 g of emulsifier per liter of water, to the desired spray solution concentration.
(§2) Plants were sprayed to point of run-off with a pressure atomizer, making sure that the stem, leaf axils, and leaves were all wet thoroughly with the solution. 30 to 35 ml of solution were used per plant. This was checked by recording volume of solution in sprayer reservoir before and after treatment. After spraying, the plants were incubated for 18 to 23 days in a greenhouse maintained at 70°-80° F. using standing water capilliary irrigation. The plants were uniformly fertilized once per week with a standard house plant fertilizer. After the incubation period, the plants were evaluated at various times for sucker control. […] The growth of secondary suckers (buds at lower nodes) when present, were also measured.
(§3) In some instances, comparisons were also made on the basis of sucker length.
(§4) The results are reported as an average of the replicates used in each test.
(§5) In this example, the title compound of Example 1 was tested side-by-side with maleic hydrazide ("C-2") with respect to axillary bud control in two varities of tobacco plants. These tests were conducted following the same general procedure as described in Example 3 hereinabove using the dosage concentrations given in the tables hereinbelow. […]

[2] = test system: tobacco suckers (axillary buds), Var. Glurk; assay: Tobacco sucker control, spray to run-off on topped plants, Var. Glurk; assay type: in vivo, Nicotiana tabacum; conditions: for inhibition at 200 µg/mL / inhibition at 400 µg/mL / inhibition at 800 µg/mL: Nicotiana tabacum, read-out: Percent Bud Inhibition Top Two Nodes; for Mean # of Nodes with Secondary Suckers / Mean Sucker Length (cm): Table 3, six weeks after treatment
Method: In this example, the title compound of Example 1 (i.e., 2-[1-(3-trans-chloroallyloxyamino)ethylidene]-5-(2-ethylthiopropyl)cyclohexane-1,3-dione was tested side-by-side with 2-[1-(3-trans-chloroallyloxyamino)butylidene]-5-(2-ethylthio-propyl)-cyclohexane-1,3-dione for their ability to control (retard or prevent) lateral axillary buds in tobacco plants.
as §1, §2, §3, §4, §5

[3] = test system: tobacco suckers (axillary buds); assay: Tobacco sucker control, foliar paint (expanded leaves only); assay type: in vivo; conditions: for inhibition at 400 µg/mL: Nicotiana tabacum, foliar, read-out: Percent Bud Inhibition Top Three Nodes
Method: as §1
(§6) Plants were sprayed to point of run-off with a pressure atomizer, making sure that the stem, leaf axils, and leaves were all wet thoroughly with the solution. 30 to 35 ml of solution were used per plant. This was checked by recording volume of solution in sprayer reservoir before and after treatment. After spraying, the plants were incubated for 18 to 23 days in a greenhouse maintained at 70°-80° F. using standing water capilliary irrigation. The plants were uniformly fertilized once per week with a standard house plant fertilizer. After the incubation period, the plants were evaluated at various times for sucker control. To make this evaluation, the axillary buds at the top three nodes (primary suckers) of each plant were compared to those of the check, and a visual estimation of percent inhibition was made wherein 0=no inhibition of axillary buds as compared with check and 100=no axillary buds at top three nodes. The growth of secondary suckers (buds at lower nodes) when present, were also measured.
(§7) In this example, the title compound of Example 1 was tested side-by-side with maleic hydrazide for tobacco sucker control (inhibition), when applied as a soil drench and also when applied only to the leaves of the plant. The same general procedure as described in Example 3 was used with the exception that the test compound was applied only to the expanded leaves for foliage treatment (foliar paint) and the compound was drenched only on the soil in the pot for soil drench treatment. The average results of these tests are given in the following table, wherein 0=no inhibition and 100=complete inhibition, i.e., no axillary buds.

[4] = test system: tobacco suckers (axillary buds); assay: Tobacco sucker control, soil drench treatment; assay type: in vivo; conditions: for inhibition at 400 µg/mL: Nicotiana tabacum, soil, read-out: Percent Bud Inhibition Top Three Nodes
Method: as §1, §6, §7

[5] = Soil Drench, 400 mg/l, six weeks after treatment

## O=c1ccc(=O)[nH][nH]1 [Compound C-2, maleic hydrazide]
[1]; 504 h
  inhibition at 200 µg/mL: 0%
  inhibition at 400 µg/mL: 23%
  inhibition at 800 µg/mL: 95%
[1]; 1008 h
  inhibition at 200 µg/mL: 12.7%
  inhibition at 400 µg/mL: 54.1%
  inhibition at 800 µg/mL: 100%
[1]; 200 mg/l spray
  Mean # of Nodes with Secondary Suckers: 0.3
  Mean Sucker Length (cm): 3.0 cm
[1]; 400 mg/l spray
  Mean # of Nodes with Secondary Suckers: 1.3
  Mean Sucker Length (cm): 76.8 cm
[1]; 800 mg/l spray
  Mean # of Nodes with Secondary Suckers: 5.3
  Mean Sucker Length (cm): 25.8 cm
[2]; 504 h
  inhibition at 200 µg/mL: 10%
  inhibition at 400 µg/mL: 88%
  inhibition at 800 µg/mL: 93%
[2]; 1008 h
  inhibition at 200 µg/mL: 31.1%
  inhibition at 400 µg/mL: 100%
  inhibition at 800 µg/mL: 100%
[2]; 200 mg/l spray
  Mean # of Nodes with Secondary Suckers: 0
  Mean Sucker Length (cm): 0 cm
[2]; 400 mg/l spray
  Mean # of Nodes with Secondary Suckers: 1.5
  Mean Sucker Length (cm): 51.0 cm
[2]; 800 mg/l spray
  Mean # of Nodes with Secondary Suckers: 2.5
  Mean Sucker Length (cm): 31.0 cm
[3]; 504 h
  inhibition at 400 µg/mL: 15%
[3]; 1008 h
  inhibition at 400 µg/mL: 0%
[3]; applied only to the leaves of the tobacco plant
  Sucker control when applied only to the leaves (systemic action), in words: does not translocate effectively
[4]; 504 h
  inhibition at 400 µg/mL: 79%
[4]; 1008 h
  inhibition at 400 µg/mL: 84%
[4]; [5]
  Observation on new growth (footnote b): new growth deformedstrap shaped leaves
  Observation on suckers at basal nodes (footnote a): some suckers appearing at basal nodes
[4]; applied as a soil drench
  Sucker control when applied as a soil drench (systemic action), in words: operates sytemically
